Assay: Fluorescence intensity of NBD-GGBP-CMC in presence and absence of glucose
Format: biochemical
Conditions: 100 nM preparation, 20 mM glucose; FIG. 6
Description: Covalent attachment was performed by activating carboxymethyl groups on the hydrogel polymer (CMC) with a mixture of N-hydroxysuccinimide (NHS) and N-ethyl-N′-(dimethylaminopropyl) carbodiimide (EDC). This forms an intermediate that is reactive to amines. NHS (100 mM) and EDC (400 mM) in water were mixed in a 1:1 vol:vol ratio. An equal volume of hydrogel polymer (25 mg/mL CMC in H2O) and the EDC/NHS mixture were combined, and incubated at room temperature for 15 to 30 minutes. The unreacted EDC and NHS were removed from the hydrogel polymer by eluting the polymer from a NAP-5 column. Varying amounts of activated hydrogel polymer were combined with the fluorescently-labeled GGBP (in this example, the NBD-A213C/L238C-GGBP-His6 mutant). The activated hydrogel polymer and protein were gently mixed, at room temperature, for 1 to 2 hours. […] An absorbance scan of solution not retained by the 100 kDa filter indicated no unattached protein remained. […] Activity of the NBD-GGBP-CMC was determined by fluorescence intensity measurement of the NBD-GGBP-CMC in the presence of high concentration glucose (20 mM) and in the absence of glucose. Thus, 100 nM preparations of the NBD-GGBP-CMC, as well as unattached NBD-GGBP (control) were measured before and after the addition of glucose (FIG. 6). […]

Substance: NBD-GGBP-CMC: NBD-labeled GGBP randomly covalently attached to carboxymethyl cellulose hydrogel polymer via EDC/NHS
- signal in the presence of glucose compared to the absence of glucose: strong signal
